How the values were obtained:
[1] = Phase 1 crossover pharmacokinetic study of tablet and capsule formulations, single oral dose; format: in vivo, human
Protocol: Certain formulations provided herein were evaluated in a Phase 1, open-label, randomized, crossover study.
On Day 1 of Period 1, following an overnight fast of at least 8 hours, subjects were randomized to one of the following 3 sequences to receive Treatment A, B or C (Table 30).
In Treatment A, one 20-mg reference Compound A API-in-capsule was administered orally after at least 8 hour fast with 240 mL of non-carbonated, room temperature water. In Treatment B, one 20-mg tablet of Compound A (Tablet Formulation XIII) was administered under fasted conditions. In Treatment C, four 5-mg tablets of Compound A (Tablet Formulation XIV) were administered under fasted conditions. The 20-mg tablet and four 5-mg tablets were administered orally after at least 8 hour fast with 240 mL of non-carbonated, room temperature water.
For each period, serial blood samples were collected before dosing (zero hour) and at 0.5, 1, 1.5, 2, 2.5, 3, 4, 6, 8, 12, 24, 48, 72, and 96 hours after dosing. Plasma concentrations of Compound A were determined for determining PK parameters, such as […], AUC0-∞, Cmax, Tmax, t1/2, CL/F, and Vz/F for Compound A. Plasma PK parameters were calculated using non compartmental methods. Analyses of variance (ANOVA) were performed on the natural log-transformed AUC0-t, AUC0-∞, and Cmax for Compound A. The geometric mean ratios (test/reference) and their 90% confidence intervals were also calculated. For Tmax, non parametric analysis was used to produce median differences.

[2] = Phase 1 food effect study (Part 2), single 20-mg oral dose of Compound A tablet, fed vs fasted; format: in vivo, human; conditions: for CL/F / Tmax / AUC(0-inf) / Cmax / half-life / AUC(0-t) / Vd/F: single 20-mg oral dose of Compound A tablet; for CL/F / AUC(0-inf) / Cmax / half-life / AUC(0-t) / Vd/F: geometric mean; for Tmax / AUC(0-inf) / Cmax / half-life / AUC(0-t) / Vd/F: male, human, plasma, po, 20 mg; for Tmax: median, read-out: Tmax; for AUC(0-t): read-out: AUC0-24; for Vd/F: read-out: Vz/F
Protocol: The primary objectives of this study are: to characterize the biotransformation and excretion of Compound A following a single 20 mg oral dose of Compound A capsule containing a microtracer of [^14C]-Compound A solution in healthy male subjects (Part 1) and to evaluate the effect of a high-fat meal on the pharmacokinetics (PK) of Compound A following a single oral 20-mg dose of Compound A tablet (Part 2).
Part 2 design: Part 2 will be a 2-period crossover study; in Period 1, subjects (n=12) will be randomized to receive either an oral 20 mg dose of Compound A tablet (Treatment B) under fed (n=6) or fasted (n=6) conditions. In Period 2, subjects will receive Treatment B under converse conditions based on treatment assignment in Period 1. After screening, subjects (n=12) eligible for participation in the study will return to the study center on Day −1 for baseline assessments. Subjects who continue to be qualified for participation in the study will be randomized and enrolled in the study on the morning of Day 1. Subjects (n=6) will be enrolled and randomized to receive Treatment B under fed or fasted conditions on the morning of Day 1 after fasting for at least 8 hours. Fed subjects will be served a standard high fat meal breakfast, or its equivalent, that must be consumed within 30 minutes from serving. Dosing must occur 30 minutes (+5 minutes) after serving a subject breakfast. All subjects (fed and fasted) will fast (not to consume any food) until 4 hours post dose. Water will be allowed during the fasting period. Subjects will be domiciled at the study center from Day −1 until the morning of Day 5 of each period. Subjects will be discharged from the study center on the morning of Day 5 upon satisfactory safety review and completion of study-related procedures. Safety and tolerability data will be monitored and collected following each dosing period. Periods 1 and 2 will be separated by a washout period of at least 7 days (no more than 10 days) from prior dose to the next dose. In certain instances, a longer washout may be acceptable if previously agreed to.
Serial blood samples (10 mL) will be collected at predose (0 hour) and at 0.5, 1, 2, 3, 6, 12, 24, 48, 72 and 96 hours post dose for the determination of plasma concentrations of Compound A and the O-desmethyl metabolite of Compound A. Safety will be monitored throughout the study; safety evaluations will include AE reporting, physical examinations, vital sign measurements, ECG, and clinical laboratory safety tests. Concomitant medications will be assessed and recorded throughout the study as well. In addition, during the subjects' stay-in-the clinic (i.e., confinement period), fasting plasma glucose levels will be monitored as part of the clinical laboratory safety tests. For Parts 1 and 2, all subjects will return to the clinic within 7 to days after the last dose for follow up safety assessments. In the event that a subject discontinues prematurely from the study, every reasonable effort should be made (and documented) to ensure that all procedures and evaluations scheduled for the follow-up visit are performed at the time of discontinuation or a follow-up visit should be scheduled within 7 to days from the discontinuation day.
Part 2 dosing: In Part 2, subjects will fast overnight for at least 8 hours prior to Compound A administration. On the morning of Day 1, each subject will receive a 20-mg tablet of Compound A orally. Subjects randomized to receive Compound A under fed conditions will be a served a standard high fat meal (breakfast).
The standard high fat meal or its equivalent must be consumed within minutes of serving. Dosing must occur 30 minutes (+5 minutes) after serving the meal. The tablet will be administered with approximately 240 mL of non-carbonated, room temperature water. After dosing, subjects will continue to fast until 4 hours after dosing.

[3] = Gravimetric vapour sorption (DVS) hygroscopicity; format: physicochemical; conditions: for water uptake (mass gain): between 0 and 80% relative humidity, DVS, 25° C.
Protocol: Sorption isotherms were obtained using a SMS DVS Intrinsic moisture sorption analyser, controlled by DVS Intrinsic Control software v1.0.0.30. The sample temperature was maintained at 25° C. by the instrument controls. The humidity was controlled by mixing streams of dry and wet nitrogen, with a total flow rate of 200 mL/min. The relative humidity was measured by a calibrated Rotronic probe (dynamic range of 1.0-100% RH), located near the sample. The weight change, (mass relaxation) of the sample as a function of % RH was constantly monitored by the microbalance (accuracy±0.005 mg). Typically 5-20 mg of sample was placed in a tared mesh stainless steel basket under ambient conditions. The sample was loaded and unloaded at 40% RH and 25° C. (typical room conditions). The standard isotherm was performed at 25° C. at 10% RH intervals over a 0-90% RH range. Data analysis was undertaken in Microsoft Excel using DVS Analysis Suite v6.0.0.7.
Hygroscopicity of Form A was determined by moisture adsorption and desorption.

[4] = fed vs fasted, healthy adult males, 20 mg Compound A

Question: For `CO[C@H]1CC[C@H](N2C(=O)CNc3ncc(-c4ccc(C(C)(C)O)nc4)nc32)CC1` [Compound A, 7-(6-(2-hydroxypropan-2-yl)pyridin-3-yl)-1-((trans)-4-methoxycyclohexyl)-3,4-dihydropyrazino[2,3-b]pyrazin-2(1H)-one], which CL/F ([1]; Treatment A: one 20-mg Compound A API-in-capsule, oral, fasted, n = 18, geometric mean) is on record?
Answer: Its CL/F is 20.3 L/h.

Question: And the half-life ([1]; male, human, plasma, Treatment A: one 20-mg Compound A API-in-capsule, oral, fasted, n = 18, geometric mean)?
Answer: Its half-life is 5.7 h.

Question: And the Vd/F ([1]; male, human, plasma, Treatment A: one 20-mg Compound A API-in-capsule, oral, fasted, n = 18, geometric mean, read-out: Vz/F)?
Answer: The Vd/F was 167 L.

Question: And the Tmax ([1]; male, human, Treatment A: one 20-mg Compound A API-in-capsule, oral, fasted, healthy adult males, n = 18, plasma, median)?
Answer: Its Tmax is 1.5 h.

Question: What about the Cmax ([1]; male, human, Treatment A: one 20-mg Compound A API-in-capsule, oral, fasted, n = 18, plasma, geometric mean) of the same compound?
Answer: The Cmax was 190 ng/mL.

Question: And the AUC(0-t) ([1]; male, human, Treatment A: one 20-mg Compound A API-in-capsule, oral, fasted, n = 18, plasma, geometric mean, read-out: AUC0-24)?
Answer: The AUC(0-t) was 934 ng·h/mL.

Question: And the AUC(0-inf) ([1]; male, human, Treatment A: one 20-mg Compound A API-in-capsule, oral, fasted, n = 18, plasma, geometric mean, read-out: AUC0-∞)?
Answer: The AUC(0-inf) was 985 ng·h/mL.

Question: What about the “pharmacokinetics, tablet formulations vs API in capsule” value ([1]; single dose 20 mg, healthy adult male subjects) of the same compound?
Answer: Its value is “comparable”.

Question: And the CL/F ([2]; Fasted (n = 11))?
Answer: Its CL/F is 19.9 L/h.

Question: What about the CL/F ([2]; Fed (n = 11, high fat meal)) of the same compound?
Answer: Its CL/F is 16.7 L/h.

Question: And the “decrease in Cmax with a high fat meal” value [2, 4]?
Answer: Its value is about 17%.

Question: What about the “increase in overall exposure (AUCinf) with a high fat meal” value [2, 4] of the same compound?
Answer: Its value is about 20%.

Question: What about the Tmax ([2]; Fasted (n = 11), healthy adult males) of the same compound?
Answer: Its Tmax is 1 h.

Question: And the AUC(0-inf) ([2]; Fasted (n = 11))?
Answer: The AUC(0-inf) was 1000 ng·h/mL.

Question: And the Cmax ([2]; Fasted (n = 11))?
Answer: Its Cmax is 182 ng/mL.

Question: And the half-life ([2]; Fasted (n = 11))?
Answer: The half-life was 5.3 h.

Question: And the AUC(0-t) ([2]; Fasted (n = 11))?
Answer: Its AUC(0-t) is 955 ng·h/mL.

Question: What about the Vd/F ([2]; Fasted (n = 11)) of the same compound?
Answer: The Vd/F was 151 L.

Question: And the AUC(0-inf) ([2]; Fed (n = 11, high fat meal))?
Answer: The AUC(0-inf) was 1200 ng·h/mL.

Question: What about the Cmax ([2]; Fed (n = 11, high fat meal)) of the same compound?
Answer: Its Cmax is 156 ng/mL.

Question: What about the half-life ([2]; Fed (n = 11, high fat meal)) of the same compound?
Answer: The half-life was 5.2 h.

Question: What about the AUC(0-t) ([2]; Fed (n = 11, high fat meal)) of the same compound?
Answer: The AUC(0-t) was 1130 ng·h/mL.

Question: What about the Vd/F ([2]; Fed (n = 11, high fat meal)) of the same compound?
Answer: The Vd/F was 125 L.

Question: And the Tmax ([2]; Fed (n = 11, high fat meal))?
Answer: Its Tmax is 3 h.

Question: Which hygroscopicity ([3]; DVS moisture adsorption and desorption) does the source give for `CO[C@H]1CC[C@H](N2C(=O)CNc3ncc(-c4ccc(C(C)(C)O)nc4)nc32)CC1` [Form A, 7-(6-(2-hydroxypropan-2-yl)pyridin-3-yl)-1-((trans)-4-methoxycyclohexyl)-3,4-dihydropyrazino[2,3-b]pyrazin-2(1H)-one] here?
Answer: Its hygroscopicity is “not hygroscopic”.

Question: And the “XRPD diffractogram after full adsorption/desorption cycle” value ([3]; after DVS cycle)?
Answer: The value was “unchanged from the initial Form A”.

Question: And the “water uptake (mass gain)” value [3]?
Answer: Its value is under 0.1 % w/w.

Question: What about the “water uptake (mass gain)” value ([3]; listed as Form A of Compound A) of the same compound?
Answer: Its value is “less than 0.1 % w/w”.

Question: What about the weight gain ([3]; increase in humidity from about 0% to about 50% relative humidity at about 25° C.) of the same compound?
Answer: The weight gain was “about 0.1 % w/w”.

Question: What about the weight gain ([3]; increase in humidity from about 0% to about 95% relative humidity at about 25° C.) of the same compound?
Answer: The weight gain was “about 0.3 % w/w”.

Question: And the mass gain ([3]; increase in humidity from about 80% to about 90% relative humidity)?
Answer: The mass gain was “about 0.5 % w/w”.
